The results in this text go back to patent US9688638B2, “Opioid agonists and uses thereof” (priority 2013, dated 2017).

For this assay, the system named is Swiss Albino or CD-1 male mice. Description: Acetic acid writhing (AAW) analgesic assay. It is filed as in vivo. The protocol:
Approaches for evaluating analgesic activity of a compound of the present invention in vivo include a “writhing test.” Briefly, the compound to be tested is administered [by, for example, injection (e.g., subcutaneous injection)] to the mouse. Thereafter, a 0.5% acetic acid solution is administered (i.p.) to a mouse and the numbers of writhing responses are counted for twenty minutes. Antinociception is quantified as reduction in the number of writhes respective to vehicle.
An analgesic assay was used to determine whether a given compound can reduce and/or prevent visceral pain in mice. The assay utilizes Swiss Albino or CD-1 male mice (5-10 mice per group), each mouse being approximately 0.015-0.030 kg on the study day. Mice were treated according to standard protocols.
The animal was given an intraperitoneal (IP) injection of an irritant (acetic acid) that induces “writhing” which may include: contractions of the abdomen, twisting and turning of the trunk, arching of the back and the extension of the hindlimbs. Mice are given a single IP injection (0.1 mL/10 g bodyweight) of a 0.5% acetic acid solution. After the injection the animals were returned to their observation enclosure and their behavior was observed. Contractions were counted between 0 and 20 minutes after the injection. The animals were used once. In certain instances, the test articles were administered at multiple doses to determine a dose response curve.
Table 4 provides the results for certain compounds of the present invention that were administered subcutaneously. Table 5 provides the results for certain compounds of the present invention that were administered orally.
(In writhing tests, fewer writhes than in controls are read as antinociception.)

Setting [1] is: Mus musculus, sc, 20 min, subcutaneous, 3 mg/kg, read-out: AAW % Efficacy.
Where [2] appears, read: Mus musculus, sc, 20 min, subcutaneous, read-out: AAW % Efficacy.
Where [3] appears, read: Mus musculus, sc, 20 min, subcutaneous, 10 mg/kg, read-out: AAW % Efficacy.

Values joined by “and” are separate entries in the source; they are usually repeats but may differ in a detail not shown here. Equal entries are not always repeated. Where two headings read alike, the source gives them in different places.

Turning to `COCCOCCOCCOCCOCCOc1ccccc1Nc1ccc2c(c1)[C@]1(C)CCN(CC3CC3)[C@H](C2=O)[C@@H]1C` [Compound 7, (2S,6R,11R)-8-((2-(2,5,8,11,14-pentaoxahexadecan-16-yloxy)phenyl)amino)-3-(cyclopropylmethyl)-6,11-dimethyl-3,4,5,6-tetrahydro-2,6-methanobenzo[d]azocin-1(2H)-one], the inhibition in vivo at 3 mg/kg under setting [1] was 38.8%. For the same compound, the inhibition in vivo at 30 mg/kg under setting [2] came out at 84.8%. The “AAW percent efficacy, outlier data removed” value (“AAW percent efficacy” below) (subcutaneous, 3 mg/kg) is 31.95.

Regarding `COCCOCCOCCOCCOCCOc1cccc(Nc2ccc3c(c2)[C@]2(C)CCN(CC4CC4)[C@H](C3=O)[C@@H]2C)c1` [Compound 8, (2S,6R,11R)-8-((3-(2,5,8,11,14-pentaoxahexadecan-16-yloxy)phenyl)amino)-3-(cyclopropylmethyl)-6,11-dimethyl-3,4,5,6-tetrahydro-2,6-methanobenzo[d]azocin-1(2H)-one], under setting [1], the inhibition in vivo at 3 mg/kg turned out to be 38%. The inhibition in vivo at 30 mg/kg under setting [2] was 100%. Further, the “AAW percent efficacy” value (subcutaneous, 3 mg/kg) amounted to 31.07.

Consider `COCCOCC(=O)NCc1ccc2c(c1)[C@]1(C)CCN(CC3CC3)C(C2=O)[C@@H]1C` [Compound 17, N,N-(((2S,6R,11R)-3-(cyclopropylmethyl)-6,11-dimethyl-1-oxo-1,2,3,4,5,6-hexahydro-2,6-methanobenzo[d]azocin-8-yl)methyl)-2-(2-methoxyethoxy)acetamide], for which the inhibition in vivo at 10 mg/kg under setting [3] was 23.3%.

Consider `COCCOCCOCCOCCOCCNc1cccc(Nc2ccc3c(c2)[C@]2(C)CCN(CC4CC4)[C@H](C3=O)[C@@H]2C)c1` [Compound 11, (2S,6R,11R)-8-((3-(2,5,8,11,14-pentaoxahexadecan-16-ylamino)phenyl)amino)-3-(cyclopropylmethyl)-6,11-dimethyl-3,4,5,6-tetrahydro-2,6-methanobenzo[d]azocin-1(2H)-one], for which the inhibition in vivo at 10 mg/kg (Mus musculus, po, 20 min, oral, 10 mg/kg, read-out: AAW % Efficacy) amounted to 31.2% and the inhibition in vivo at 10 mg/kg under setting [3] amounted to 99.1%. For the same compound, the inhibition in vivo at 0.3 mg/kg (Mus musculus, sc, 20 min, subcutaneous, 0.3 mg/kg, read-out: AAW % Efficacy) came to 21.1%. Moreover, the inhibition in vivo at 3 mg/kg under setting [1] came to 62.2%. Moreover, under setting [2], the inhibition in vivo at 30 mg/kg was determined as 100%. Moreover, the “AAW percent efficacy” value reads like this: (subcutaneous, 0.3 mg/kg) 12.30; (subcutaneous, 3 mg/kg) 56.21 and 60.30; (subcutaneous, 10 mg/kg) 99.00.

Turning to `C[C@H]1[C@H]2C(=O)c3cc4sc(N)nc4cc3[C@]1(C)CCN2CC1CC1` [Step 1 of 13, (6S,10R,12R)-2-amino-7-(cyclopropylmethyl)-10,12-dimethyl-7,8,9,10-tetrahydro-6,10-methanothiazolo[4′,5′:4,5]benzo[1,2-d]azocin-5(6H)-one], under setting [3], the inhibition in vivo at 10 mg/kg came out at 100%.

In the case of `COCCOCCOCCOCCOCCNc1ccc(Nc2ccc3c(c2)[C@]2(C)CCN(CC4CC4)[C@H](C3=O)[C@@H]2C)cc1` [Compound 10, (2S,6R,11R)-8-((4-(2,5,8,11,14-pentaoxahexadecan-16-ylamino)phenyl)amino)-3-(cyclopropylmethyl)-6,11-dimethyl-3,4,5,6-tetrahydro-2,6-methanobenzo[d]azocin-1(2H)-one], under setting [2], the inhibition in vivo at 30 mg/kg worked out at 100%. Moreover, under “subcutaneous, 3 mg/kg”, the “AAW % Efficacy” value turned out to be 34.0% and the “AAW percent efficacy” value is on record as 26.63.

`COCCOCCNCc1ccc2c(c1)[C@]1(C)CCN(CC3CC3)[C@H](C2=O)[C@@H]1C` [Compound 18, (2S,6R,11R)-3-(cyclopropylmethyl)-8-(((2-(2-methoxyethoxy)ethyl)amino)methyl)-6,11-dimethyl-3,4,5,6-tetrahydro-2,6-methanobenzo[d]azocin-1(2H)-one]: the inhibition in vivo at 10 mg/kg under setting [3] was determined as 31.9%.

For `COCCOCCOCCOCCOCCOc1c(O)ccc2c1[C@]1(C)CCN(CC3CC3)[C@H](C2=O)[C@@H]1C` [Compound 19, (2S,6R,11R)-7-(2,5,8,11,14-pentaoxahexadecan-16-yloxy)-3-(cyclopropylmethyl)-8-hydroxy-6,11-dimethyl-3,4,5,6-tetrahydro-2,6-methanobenzo[d]azocin-1(2H)-one], the inhibition in vivo at 10 mg/kg under setting [3] turned out to be 31.6%.
